From patent US6391339B1, “Use of oligosaccharide for preventing blood clotting in extracorporeal blood circuits” (Akzo Nobel N.V., priority 1997, dated 2002) come the findings set out here.

The test system of this test is patients undergoing chronic intermittent haemodialysis. The conditions noted are these: 12 haemodialysis patients; half an hour before the end of the last dialysis.

Method: The study consisted of 2 phases (block A and block B). In block A, 10 mg of Org 31540/SR 90107 A was administered. Thereafter, in block B, 8, 6, and 4 mg of Org 31540/SR 90107 A were used.
Medication was given as an intravenous bolus predialysis for 1 dialysis each week. Efficacy was assessed by determining patency of the dialyzer, buffer and bubble chamber, every hour during dialysis by visual examination and by blood sampling of specific coagualtion, heamatologic and biochemical parameters. Anti-Xa plasma samples, to determine pharmacokinetics, were taken every hour during dialysis and 1 hour after dialysis and daily for 3 days post-dialysis. Safety was assessed by evaluating major and minor bleeding complications each dialysis.

In the case of `CO[C@H]1O[C@H](COS(=O)(=O)O)[C@@H](O[C@@H]2O[C@@H](C(=O)O)[C@@H](O[C@H]3O[C@H](COS(=O)(=O)O)[C@@H](O[C@@H]4O[C@H](C(=O)O)[C@@H](O[C@H]5O[C@H](COS(=O)(=O)O)[C@@H](O)[C@H](O)[C@H]5NS(=O)(=O)O)[C@H](O)[C@H]4O)[C@H](OS(=O)(=O)O)[C@H]3NS(=O)(=O)O)[C@H](O)[C@H]2OS(=O)(=O)O)[C@H](O)[C@H]1NS(=O)(=O)O` [Org 31540/SR 90107 A, methyl O—(2-deoxy-2-sulphoamino-6-O-suplho-α-D-glucopyranosyl)-(1→4)—O—(β-D-glucopyranosyluronic acid)-(1→4)—O—(2-deoxy-2-sulphoamino-3,6-di-O-sulpho-α-D-glucopyranosyl)-(1→4)—O—(2-O-sulpho-α-L-idopyranosyluronic acid)-(1→4)-2-deoxy-2-sulphoamino-6-O-sulpho-α-D-glucopyranoside], the “clot in the buffer chamber making dialysis impossible” value is “Only in one patient”.
